Source: article PMC9090415, “Discovery of small molecule inhibitors of Plasmodium falciparum apicoplast DNA polymerase” (Journal of Enzyme Inhibition and Medicinal Chemistry, 2022)

Target: P. falciparum apicoplast DNA polymerase (Pf-apPOL) (Plasmodium falciparum, UniProt Q8ILY1)
Experiment: Fluorescence-based high-throughput DNA polymerase assay (molecular beacon), primary screen and dose-response
Format: biochemical
Procedure: The HT assay employs a molecular beacon, a stem-loop DNA template with a Cy3 dye and the Black Hole Quencher on the 3′ and 5′ ends of the DNA, respectively. Pf-apPOL concentration is based on a calculated absorptivity of ε280 = 56750 M^−1 cm^−1. Reactions were carried out at 25 °C, using Corning 3575 […] (well-volume, 20 µL). Assays testing for compound inhibition composed of reaction buffer (pH 7.9 in 50 mM potassium acetate, 20 mM Tris-acetate and 10 mM magnesium acetate), Pf-apPOL (20 nM), DNA substrate (20 nM), dNTPs (6 µM), and compound (10 µM in DMSO). The DNA and nucleotide substrates (dNTPs) were at concentrations of 20 nM and 6 µM, respectively, in the assay. Pf-apPOL was incubated in the reaction buffer with dNTPs and the compound of interest (10 µM, in the assay) at 25 °C for 10 min. The DNA substrate was then added and the reaction was allowed to proceed for 90 min at 25 °C.
Each assay plate contained 16 negative controls (no Pf-apPOL, DMSO present) and 16 positive controls (Pf-apPOL present, no DMSO). The fluorescence of each well was determined using a BioTek Synergy Neo fluorescence plate reader using excitation and emission wavelengths of 555 and 570 nm, respectively.
In the above, Min is the average of fluorescence emission of the negative controls (substrate only), Max the average fluorescence emission from the positive controls (enzyme + substrate), and Test the emission from the assays in the presence of compounds (enzyme + compound + substrates). […] […] The IC50 of each compound was determined using Equation (2): (2) IC50= Vmax/(1+ (I/IC50)^n)
In the above, n measures cooperativity, with n > 1 indicating synergistic binding of more than a single molecule of the compound.
To identify apPOL inhibitors we utilised our previously developed high-throughput DNA polymerase assay. The HT assay is based on a molecular beacon DNA template that forms a stem-loop with a Cy3 dye and the Black Hole Quencher on the 3′ and 5′ ends of the DNA, respectively. DNA polymerase activity extends an annealed primer through the stem region, displacing the fluorophore from the quencher, thereby increasing its fluorescence (Figure 1(A)). The assay accurately recapitulates the kinetic behaviour of apPOL, as measured through more conventional low-throughput gel-based assays. The Z′ factor for the assay described here was 0.9 across all plates (data not shown).
Figure 1. High-throughput screening. (A) The fluorescent-based DNA polymerase assay used to screen the compound libraries. The DNA template strand is a hairpin loop with a primer annealed to the loop. The 3’ end of the primer is 11 bases away from the 6 bp duplex. Strand displacement activity of the DNA polymerase separates the Cy3 dye from the Black hole quencher leading to an increase in fluorescent signal. (B) The high-throughput assay workflow. The DNA polymerase is incubated with […] compound for 10 min prior to addition of the hairpin substrate. The reaction is quenched at 3 different time points and the fluorescent signal is measured and % inhibition is determined using the provided equation.

Sequence of P. falciparum apicoplast DNA polymerase (Pf-apPOL) (Q8ILY1 entry or part of it): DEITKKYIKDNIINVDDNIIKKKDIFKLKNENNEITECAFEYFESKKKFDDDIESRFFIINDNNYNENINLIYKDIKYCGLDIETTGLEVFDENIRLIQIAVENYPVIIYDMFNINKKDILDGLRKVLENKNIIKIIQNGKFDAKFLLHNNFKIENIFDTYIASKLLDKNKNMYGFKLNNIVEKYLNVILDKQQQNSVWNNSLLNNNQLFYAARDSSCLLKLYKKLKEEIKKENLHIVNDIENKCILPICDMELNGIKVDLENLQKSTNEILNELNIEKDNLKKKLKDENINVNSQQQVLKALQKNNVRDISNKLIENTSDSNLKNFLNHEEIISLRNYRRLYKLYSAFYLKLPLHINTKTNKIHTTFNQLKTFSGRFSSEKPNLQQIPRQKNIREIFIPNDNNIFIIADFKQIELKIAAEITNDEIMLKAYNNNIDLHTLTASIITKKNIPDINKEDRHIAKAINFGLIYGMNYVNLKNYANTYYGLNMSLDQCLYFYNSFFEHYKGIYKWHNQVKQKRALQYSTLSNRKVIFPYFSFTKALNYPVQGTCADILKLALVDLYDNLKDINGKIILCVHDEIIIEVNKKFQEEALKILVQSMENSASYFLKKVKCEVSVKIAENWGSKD

O=C(Nc1nnc(-c2cccs2)o1)c1ccc([N+](=O)[O-])o1 [Molecule 74, O=C(c1ccc(o1)[N+](=O)[O-])Nc1nnc(o1)c1cccs1]
DNA Pol ('DNA Pol'; screening value, unit not given; 90 min, 10 µM): 45
% inhibition Apo pol 10' (DRC-1; 10'; concentration 2.5): 6.774%
% inhibition Apo pol 10' (DRC-1; 10'; concentration 5): 8.378%
% inhibition Apo pol 10' (DRC-1; 10'; concentration 10): 26.6912%
% inhibition Apo pol 10' (DRC-1; 10'; concentration 20): 31.2083%
% inhibition Apo pol 10' (DRC-1; 10'; concentration 40): 61.6111%
% inhibition Apo pol 10' (DRC-1; 10'; concentration 80): 81.7408%
% inhibition Apol 90' (DRC-1; 90'; concentration 2.5): 1.699%
% inhibition Apol 90' (DRC-1; 90'; concentration 5): 1.687%
% inhibition Apol 90' (DRC-1; 90'; concentration 10): 13.6974%
% inhibition Apol 90' (DRC-1; 90'; concentration 20): 16.6576%
% inhibition Apol 90' (DRC-1; 90'; concentration 40): 40.7668%
% inhibition Apol 90' (DRC-1; 90'; concentration 80): 62.2777%
% inhibition apPOL 180' (DRC-1; 180'; concentration 2.5): -4.1234%
% inhibition apPOL 180' (DRC-1; 180'; concentration 5): -4.583%
% inhibition apPOL 180' (DRC-1; 180'; concentration 10): 3.855%
% inhibition apPOL 180' (DRC-1; 180'; concentration 20): 5.086%
% inhibition apPOL 180' (DRC-1; 180'; concentration 40): 25.388%
% inhibition apPOL 180' (DRC-1; 180'; concentration 80): 45.6773%
% inhibition Apo pol 5' (DRC-2, 5', concentration 2.5): 3%
% inhibition Apo pol 5' (DRC-2, 5', concentration 5): 14%
% inhibition Apo pol 5' (DRC-2, 5', concentration 10): 30%
% inhibition Apo pol 5' (DRC-2, 5', concentration 20): 41%
% inhibition Apo pol 5' (DRC-2, 5', concentration 40): 61%
% inhibition Apo pol 5' (DRC-2, 5', concentration 80): 70%
% inhibition Apol 40' (DRC-2, 40', concentration 2.5): 1.79%
% inhibition Apol 40' (DRC-2, 40', concentration 5): 13%
% inhibition Apol 40' (DRC-2, 40', concentration 10): 27%
% inhibition Apol 40' (DRC-2, 40', concentration 20): 36%
% inhibition Apol 40' (DRC-2, 40', concentration 40): 61%
% inhibition Apol 40' (DRC-2, 40', concentration 80): 78%
% inhibition ApPOL 90' (DRC-2, 90', concentration 2.5): -0.446%
% inhibition ApPOL 90' (DRC-2, 90', concentration 5): 12%
% inhibition ApPOL 90' (DRC-2, 90', concentration 10): 24%
% inhibition ApPOL 90' (DRC-2, 90', concentration 20): 32%
% inhibition ApPOL 90' (DRC-2, 90', concentration 40): 57%
% inhibition ApPOL 90' (DRC-2, 90', concentration 80): 79%
% inhibition apPOL 180' (DRC-2, 180', concentration 2.5): -3.19%
% inhibition apPOL 180' (DRC-2, 180', concentration 5): 7%
% inhibition apPOL 180' (DRC-2, 180', concentration 10): 15%
% inhibition apPOL 180' (DRC-2, 180', concentration 20): 20%
% inhibition apPOL 180' (DRC-2, 180', concentration 40): 45%
% inhibition apPOL 180' (DRC-2, 180', concentration 80): 76%
% inhibition Apo pol 5' (conc 40 (unit not given); 5'; DRC-2): 61%
% inhibition Apol 40' (conc 40 (unit not given); 40'; DRC-2): 61%
DNA Pol (primary screen hit value, DNA Pol (186 hits); 90 min, 10 µM): 45

CCOc1ccc2cc(C3=NN(C(=O)CCC(=O)O)C(c4ccc(C)cc4)C3)c(=O)[nH]c2c1 (stereo not shown) [KU0056200]
% inhibition Apo pol 10' (DRC-1; concentration 2.5; 10'): 1.583%
% inhibition Apol 90' (DRC-1; concentration 2.5; 90'): -4.0405%
% inhibition apPOL 180' (DRC-1; concentration 2.5; 180'): -8.679%
% inhibition Apo pol 10' (DRC-1; concentration 5; 10'): 6.049%
% inhibition Apol 90' (DRC-1; concentration 5; 90'): 0.1368%
% inhibition apPOL 180' (DRC-1; concentration 5; 180'): -5.456%
% inhibition Apo pol 10' (DRC-1; concentration 10; 10'): 12.8328%
% inhibition Apol 90' (DRC-1; concentration 10; 90'): 2.997%
% inhibition apPOL 180' (DRC-1; concentration 10; 180'): -3.315%
% inhibition Apo pol 10' (DRC-1; concentration 20; 10'): 32.0591%
% inhibition Apol 90' (DRC-1; concentration 20; 90'): 18.8847%
% inhibition apPOL 180' (DRC-1; concentration 20; 180'): 8.488%
% inhibition Apo pol 10' (DRC-1; concentration 40; 10'): 80.8761%
% inhibition Apol 90' (DRC-1; concentration 40; 90'): 73.3726%
% inhibition apPOL 180' (DRC-1; concentration 40; 180'): 64.1358%
% inhibition Apo pol 10' (DRC-1; concentration 80 (unit not given); 10'): 88.576%
% inhibition Apol 90' (DRC-1; concentration 80; 90'): 90.0975%
% inhibition apPOL 180' (DRC-1; concentration 80; 180'): 90.0477%
% inhibition Apo pol 5' (DRC-2; 5'; concentration 10): 23%
% inhibition ApPOL 90' (DRC-2; 90'; concentration 10): 23%
% inhibition ApPOL 90' (DRC-2; 90'; concentration 40): 73%
% inhibition apPOL 180' (DRC-2; 180'; concentration 40): 73%
% inhibition Apo pol 5' (DRC-2; concentration 2.5; 5'): 2.23%
% inhibition Apol 40' (DRC-2; concentration 2.5; 40'): 0.754%
% inhibition ApPOL 90' (DRC-2; concentration 2.5; 90'): -0.536%
% inhibition apPOL 180' (DRC-2; concentration 2.5; 180'): -0.06%
% inhibition Apo pol 5' (DRC-2; concentration 5; 5'): 4.72%
% inhibition Apol 40' (DRC-2; concentration 5; 40'): 6%
% inhibition ApPOL 90' (DRC-2; concentration 5; 90'): 4.71%
% inhibition apPOL 180' (DRC-2; concentration 5; 180'): 1.23%
% inhibition Apo pol 5' (DRC-2; concentration 10; 5'): 23%
% inhibition Apol 40' (DRC-2; concentration 10; 40'): 25%
% inhibition ApPOL 90' (DRC-2; concentration 10; 90'): 23%
% inhibition apPOL 180' (DRC-2; concentration 10; 180'): 16%
% inhibition Apo pol 5' (DRC-2; concentration 20; 5'): 42%
% inhibition Apol 40' (DRC-2; concentration 20; 40'): 49%
% inhibition ApPOL 90' (DRC-2; concentration 20; 90'): 47%
% inhibition apPOL 180' (DRC-2; concentration 20; 180'): 39%
% inhibition Apo pol 5' (DRC-2; concentration 40; 5'): 54%
% inhibition Apol 40' (DRC-2; concentration 40; 40'): 70%
% inhibition ApPOL 90' (DRC-2; concentration 40; 90'): 73%
% inhibition apPOL 180' (DRC-2; concentration 40; 180'): 73%
% inhibition Apo pol 5' (DRC-2; concentration 80; 5'): 55%
% inhibition Apol 40' (DRC-2; concentration 80; 40'): 74%
% inhibition ApPOL 90' (DRC-2; concentration 80; 90'): 78%
% inhibition apPOL 180' (DRC-2; concentration 80; 180'): 82%
DNA Pol (primary screen value of the 186 hits; unit not given; 90 min, 10 µM): 36
DNA Pol (primary screen value; head prints only 'DNA Pol'; 90 min, 10 µM): 36
